Laboratory results reported in publication PMC6839174, “Targeting the Formyl Peptide Receptor type 1 to prevent the adhesion of ovarian cancer cells onto mesothelium and subsequent invasion” (Journal of Experimental & Clinical Cancer Research : CR, 2019).
Non-standard residues stand in square brackets, D forms with d. Aib = CC(C)(N)C(=O)O

Legend:
[1] = set-up: method as in PMID 28465589; conditions: mice, ref [36], cited from earlier work
FPR1 [2] = conditions: FPR1 overexpressing rat basophilic leukaemia RBL-2H3/ETFR cells; stated also as conclusion for primary EOC cells; ref [38]; cited from earlier work
Excerpt: In order to obtain primary cultures of EOC cells, representative fragments of tissue samples were fragmented and cells recovered, as described in the Methods. By enzymatic digestion of a HGSC tissue sample (patient #5), a primary cell culture expressing high levels of both uPAR and FPR1 on cell surface as shown by IHC, was obtained (Figs. 4 and 5a). Subsequent sub-cloning of isolated cell clusters (Fig. 5b) followed by five passages allowed us to obtain an adherent, homogeneous, CD326 positive cell population. These EOC cells express a considerable amount of both uPAR and FPR1 as shown by West ...

A2780 cells = test: HPMC invasion by A2780 cells monitored in real time; format: cell-based, Human; conditions: 10 nM RI-3; xCELLigence; quadruplicate representative of 2 replicates
Procedure: (§1) HPMCs (5 × 10^3 cells/well) suspended in growth medium, were seeded in E-16-well plates and allow to adhere for 18–20 h until they form a confluent monolayer, prior to seeding EOC cells (2 × 10^4 cells/well) in growth medium plus/minus 10 nM RI-3. When HPMCs are challenged with invading cells, there is a drop in electrical resistance within 2–4 h which is monitored in real-time as the Cell Index changes due to the rupture of mesothelium. The experiments were performed three times in quadruplicate.
Supplementary file 13046_2019_1465_MOESM1_ESM.zip: Additional file 1: Figure S1. Adhesion and mesothelial invasion properties of uPAR and FPR1 lacking EOC cells. a. […] analysis of human ovarian carcinoma A2780 cells with (CD87)-APC-conjugated anti-uPAR or PE-conjugated FPR1 antibodies. b. Cell adhesion of A2780 cells on 1% BSA (CTRL), Vn-, Fn-Lm or Coll-coated plates, in the presence or the absence of 10 nM RI-3. The number of adherent cells was expressed as a percentage of CTRL. Data are the means ± SD of three independent experiment. c. Mesothelium invasion by A2780 cells. […] Then, A2780 cells suspended in growth medium plus/minus 10 nM RI-3 were seeded onto the mesothelial cell monolayer and invasion of mesothelium by A2780 cells was monitored in real-time as changes in Cell Index due to breaking of the monolayer integrity. […]

primary EOC cells [3] = test: HPMC invasion by primary EOC cells monitored in real time; format: cell-based, human; conditions: 10 nM RI-3; xCELLigence, slopes 18–24 h; quadruplicate representative of 3 replicates
Procedure: as §1

primary EOC cells [4] = test: GFP-EOC (primary) cell adhesion onto mesothelium (HPMC monolayer); format: cell-based, human; conditions: three independent experiments in triplicate
Procedure: HPMCs (1 × 10^5 cells/well) suspended in growth medium, were seeded in 24-well plates and allowed to adhere for about 20 h until they form a confluent monolayer, prior to seeding GFP-tagged EOC cells suspended in growth medium plus diluents or 10 nM RI-3. At the indicated times, plates were accurately washed with PBS and cell-associated fluorescence was assessed by a fluorescence plate reader a fluorescence plate reader (Victor 3, Perkin Elmer), using 485 nm excitation and 535 nm emission filters. The experiments were performed three times in triplicate.

[5] = test system: sarcoma and melanoma cells; conditions: dose dependent, ref [36], [37]; cited from earlier work
Excerpt: (§2) Human FPR1, originally identified in neutrophils, monocytes and macrophages, has been shown in recent years, to be expressed also in many non-myelocytic cells. Aberrant expression of FPR1 was detected in tumors of different origin and reported as a negative prognostic factor [29–31]. While the role of uPAR in favoring intra-abdominal dissemination of ovarian cancer cells is largely documented, no data regarding expression and possible role of FPR1 on the surface of ovarian cancer cells are currently available. In the past years, we generated synthetic peptides containing the s ...

FPR1 [6] = conditions: ref [36], cited from earlier work
Excerpt: as §2

[7] = cited from earlier work
Excerpt: as §2

[8] = test system: p38 MAPK and PI3K/AKT signaling cascades; conditions: ref [36]; cited from earlier work
Excerpt: as §2

[9] = test system: SKOV-3 and primary EOC cells; test: Cell adhesion to vitronectin, SKOV-3 and primary EOC cells (summary statement); format: cell-based, human; conditions: pre-exposure
Procedure: Adhesion assays were performed using 24 multi-well plates coated with 1% BSA, 5 μg mL vitronectin (Vn), 5 μg mL fibronectin (Fn), 5 μg mL laminin (Lm) or 15 μg mL collagen (Coll) diluted in serum-free medium. Sub-confluent cells were harvested by a mild trypsinization, incubated with 10% FBS / DMEM for 1 h at 37 °C, 5% CO2, acid treated with a buffer containing 50 mM glycin-HC1, 0.1 M NaCl, pH 3 for 4 min at 22 °C, to remove receptor-bound ligands, and counted. Viable cells (2 × 10^5 cells per well) were plated in serum-free medium, in the absence or presence of 2 μg/mL R3 mAb recognizing the DI uPAR domain, 2 μg/mL399 anti-uPAR (American Diagnostica), 2 μg/mL anti-uPAR84-95 (PRIMM), 2 μg/mL anti-α-tubulin (Cell Signaling) Abs or 10 nM RI-3, and allowed to adhere for 2 h at 37 °C, 5% CO2. […] At the end of the assay, adherent cells were removed with 0.05% trypsin, and counted. The number of adherent cells was expressed as a percentage of the basal cell adhesion (CTRL). The experiments were performed at least three times in triplicate.
This assay was performed using E-16-well plates and the xCELLigence Real Time Cell Analysis technology. […] The impedance value of each well was automatically monitored in real-time for at least 2 h and expressed as a cell index value. […]

Ac-[dY][dR][Aib][dR]-NH2 [RI-3, retro-inverso peptide, uPAR/FPR1 antagonist]
body weight ([1]; versus vehicle-treated animals): no change of body weight
tolerability in vivo [1]: well tolerated in vivo
visible side-effects [1]: no visible side-effects
FPR1 binding and blockade of internalization and function (FPR1 [2]): binds to FPR1 blocking its internalization and function
A2780 cell crossing of mesothelium (A2780 cells): ineffective
reduction of capability of EOC cells to cross the mesothelial cell monolayer (primary EOC cells [3]): about 80%
reduction of EOC cell adhesion onto mesothelium (primary EOC cells [4]; 10 nM RI-3, after 5 min): 72%
reduction of EOC cell adhesion onto mesothelium (primary EOC cells [4]; 10 nM RI-3, after 10 min): 51%
reduction of EOC cell adhesion onto mesothelium (primary EOC cells [4]; 10 nM RI-3, after 20 min): 47%
reduction of EOC cell adhesion onto mesothelium (primary EOC cells [4]; 10 nM RI-3, after 40 min): 46%
concentration range for overall 50% reduction of cell invasion [5]: nanomolar range
concentration range for overall 50% reduction of cell migration [5]: picomolar
competition for binding to FPR1 (FPR1 [6]; competes with fMLF and SRSRY): competes with fMLF and SRSRY for binding to FPR1
SRSRY-induced FPR1 internalization (FPR1 [6]): preventing SRSRY-induced FPR1 internalization
stability in human serum [7]: stable in human serum
p38 MAPK and PI3K/AKT signaling cascades [8]: preventing SRSRY-induced FPR1 internalization as well as p38 MAPK and PI3K/AKT signaling cascades
extent of cell adhesion to vitronectin (abstract) [9]: decreases to basal level
